From PubChem BioAssay (NCI)
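Briefly, cells in 96-well plates were exposed to five compound concentrations for 48 h, and endpoints were estimated by linear interpolation. The concentration for full growth arrest is given as TGI.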

How the values were obtained:
Test in all cases: inhibition of tumour cell growth, NCI panel, 48 h
786-0 renal = system: 786-0 renal
A498 renal = system: A498 renal
A549 NSCLC = system: A549 NSCLC
ACHN renal = system: ACHN renal
BT-549 breast = system: BT-549 breast
CAKI-1 renal = system: CAKI-1 renal
CCRF-CEM leukemia = system: CCRF-CEM leukemia
COLO 205 colon = system: COLO 205 colon
DU-145 prostate = system: DU-145 prostate
EKVX NSCLC = system: EKVX NSCLC
HCC-2998 colon = system: HCC-2998 colon
HCT-116 colon = system: HCT-116 colon
HCT-15 colon = system: HCT-15 colon
HOP-62 NSCLC = system: HOP-62 NSCLC
HOP-92 NSCLC = system: HOP-92 NSCLC
IGROV1 ovarian = system: IGROV1 ovarian
K-562 leukemia = system: K-562 leukemia
KM12 colon = system: KM12 colon
LOX IMVI melanoma = system: LOX IMVI melanoma
M14 melanoma = system: M14 melanoma
MALME-3M melanoma = system: MALME-3M melanoma
MCF7 breast = system: MCF7 breast
MDA-MB-231 breast = system: MDA-MB-231 breast
MDA-MB-435 = system: MDA-MB-435
MDA-N = system: MDA-N
MOLT-4 leukemia = system: MOLT-4 leukemia
NCI-H23 lung = system: NCI-H23 lung
NCI-H460 lung = system: NCI-H460 lung
NCI-H522 lung = system: NCI-H522 lung
NCI/ADR-RES ovarian = system: NCI/ADR-RES ovarian
OVCAR-3 ovarian = system: OVCAR-3 ovarian
OVCAR-4 ovarian = system: OVCAR-4 ovarian
OVCAR-5 ovarian = system: OVCAR-5 ovarian
OVCAR-8 ovarian = system: OVCAR-8 ovarian
PC-3 prostate = system: PC-3 prostate
RPMI-8226 leukemia = system: RPMI-8226 leukemia
RXF 393 renal = system: RXF 393 renal
SF-268 CNS = system: SF-268 CNS
SF-295 CNS = system: SF-295 CNS
SK-MEL-2 melanoma = system: SK-MEL-2 melanoma
SK-MEL-28 melanoma = system: SK-MEL-28 melanoma
SK-MEL-5 melanoma = system: SK-MEL-5 melanoma
SK-OV-3 ovarian = system: SK-OV-3 ovarian
SN12C renal = system: SN12C renal
SNB-19 CNS = system: SNB-19 CNS
SR leukemia = system: SR leukemia
SW-620 colon = system: SW-620 colon
TK-10 renal = system: TK-10 renal
U251 CNS = system: U251 CNS
UACC-257 melanoma = system: UACC-257 melanoma
UACC-62 melanoma = system: UACC-62 melanoma
UO-31 renal = system: UO-31 renal

## OCCc1ccsc1-c1sc(-c2cc(CCO)c(-c3sccc3CCO)s2)cc1CCO
786-0 renal
  TGI: 29 µM
A498 renal
  TGI: 40.3 µM
A549 NSCLC
  TGI: > 100 µM
ACHN renal
  TGI: 35.9 µM
BT-549 breast
  TGI: 20.3 µM
CAKI-1 renal
  TGI: 44.3 µM
CCRF-CEM leukemia
  TGI: > 100 µM
COLO 205 colon
  TGI: 31 µM
DU-145 prostate
  TGI: 32.9 µM
EKVX NSCLC
  TGI: 32.4 µM
HCC-2998 colon
  TGI: 30.2 µM
HCT-116 colon
  TGI: 43.8 µM
HCT-15 colon
  TGI: 40.5 µM
HOP-62 NSCLC
  TGI: 27.6 µM
HOP-92 NSCLC
  TGI: 32.6 µM
IGROV1 ovarian
  TGI: 29.5 µM
K-562 leukemia
  TGI: > 100 µM
KM12 colon
  TGI: 11.5 µM
LOX IMVI melanoma
  TGI: 72.3 µM
M14 melanoma
  TGI: 23.7 µM
MALME-3M melanoma
  TGI: 23.7 µM
MCF7 breast
  TGI: 31 µM
MDA-MB-231 breast
  TGI: 48.5 µM
MDA-MB-435
  TGI: 41.1 µM
MDA-N
  TGI: 63.5 µM
MOLT-4 leukemia
  TGI: > 100 µM
NCI-H23 lung
  TGI: 41 µM
NCI-H460 lung
  TGI: 32.5 µM
NCI-H522 lung
  TGI: 25.7 µM
NCI/ADR-RES ovarian
  TGI: 38.5 µM
OVCAR-3 ovarian
  TGI: 32.5 µM
OVCAR-4 ovarian
  TGI: 34 µM
OVCAR-5 ovarian
  TGI: 32.4 µM
OVCAR-8 ovarian
  TGI: 29.5 µM
PC-3 prostate
  TGI: 24.1 µM
RPMI-8226 leukemia
  TGI: > 100 µM
RXF 393 renal
  TGI: 9.05 µM
SF-268 CNS
  TGI: 14 µM
SF-295 CNS
  TGI: 30.3 µM
SK-MEL-2 melanoma
  TGI: 29.5 µM
SK-MEL-28 melanoma
  TGI: 41.4 µM
SK-MEL-5 melanoma
  TGI: 52.9 µM
SK-OV-3 ovarian
  TGI: 35.8 µM
SN12C renal
  TGI: 63.1 µM
SNB-19 CNS
  TGI: 36.5 µM
SR leukemia
  TGI: > 100 µM
SW-620 colon
  TGI: > 100 µM
TK-10 renal
  TGI: 44 µM
U251 CNS
  TGI: 49 µM
UACC-257 melanoma
  TGI: 34.4 µM
UACC-62 melanoma
  TGI: 25.4 µM
UO-31 renal
  TGI: 31.4 µM
